The text below walks through data of publication PMC8745601 (International Journal of Molecular Sciences, 2021).

Data set [1] concerns the target T1, BCRP (Homo sapiens, UniProt Q9UNQ0).
T1 construct: expressed in transfected cells; host or cells: MDCKII
T1 sequence (Q9UNQ0 1-655): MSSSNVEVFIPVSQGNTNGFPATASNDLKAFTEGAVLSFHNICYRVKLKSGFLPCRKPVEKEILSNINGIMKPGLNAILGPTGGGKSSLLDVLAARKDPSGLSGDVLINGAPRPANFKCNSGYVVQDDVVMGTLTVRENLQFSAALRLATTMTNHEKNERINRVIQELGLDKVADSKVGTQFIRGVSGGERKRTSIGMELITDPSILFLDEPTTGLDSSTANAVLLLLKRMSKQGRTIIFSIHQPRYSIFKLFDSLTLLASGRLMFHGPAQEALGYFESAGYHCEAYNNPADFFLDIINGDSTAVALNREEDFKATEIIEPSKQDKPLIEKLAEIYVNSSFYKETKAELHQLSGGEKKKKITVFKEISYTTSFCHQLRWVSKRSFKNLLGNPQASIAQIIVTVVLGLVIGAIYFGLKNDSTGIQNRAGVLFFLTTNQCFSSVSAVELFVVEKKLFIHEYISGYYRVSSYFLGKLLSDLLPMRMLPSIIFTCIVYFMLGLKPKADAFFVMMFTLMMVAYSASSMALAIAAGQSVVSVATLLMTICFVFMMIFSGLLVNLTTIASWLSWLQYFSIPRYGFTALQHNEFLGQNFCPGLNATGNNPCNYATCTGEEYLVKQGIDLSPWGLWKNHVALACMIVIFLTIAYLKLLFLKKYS
Put plainly: Transwell assay, MDCKII cells stably expressing BCRP. It counts as cell-based. Conditions: 100 µmol/L doxorubicin; MDCKII-BCRP on Transwell. The procedure: (§1) In brief, MDCKII cells stably expressing P-gp or BCRP were seeded on 0.4 µm Transwell® membrane inserts (200.000 cells/insert; Ø6.5 mm, growth area 0.33 cm2) and allowed to differentiate for five days. The integrity of the monolayer was confirmed by monitoring the trans-epithelial electrical resistance (TEER) using the EVOMX system (WPI, Sarasota, FL, USA). […] Every 30 min, the incubation buffer was removed from the receiver compartment and replaced by a freshly preheated buffer for a total time of 2.5 h.

The target in data set [2] is T2, OCT1 (Homo sapiens, UniProt O15245).
T2 sequence (O15245 1-554): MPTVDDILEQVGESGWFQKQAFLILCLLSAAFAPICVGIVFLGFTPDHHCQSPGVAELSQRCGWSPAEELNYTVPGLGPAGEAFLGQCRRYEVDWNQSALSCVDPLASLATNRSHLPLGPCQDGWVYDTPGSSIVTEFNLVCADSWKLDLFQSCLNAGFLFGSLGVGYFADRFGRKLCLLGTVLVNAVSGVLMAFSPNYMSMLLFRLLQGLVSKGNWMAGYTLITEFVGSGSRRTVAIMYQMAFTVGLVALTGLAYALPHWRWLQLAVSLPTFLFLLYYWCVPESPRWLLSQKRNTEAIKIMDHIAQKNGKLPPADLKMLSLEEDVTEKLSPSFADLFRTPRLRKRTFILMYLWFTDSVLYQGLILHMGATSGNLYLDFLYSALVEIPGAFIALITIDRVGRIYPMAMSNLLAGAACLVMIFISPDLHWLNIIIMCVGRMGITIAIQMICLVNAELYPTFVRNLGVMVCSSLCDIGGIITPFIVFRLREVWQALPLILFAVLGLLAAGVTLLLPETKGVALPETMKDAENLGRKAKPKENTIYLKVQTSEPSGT
As to conditions: MDCKII-OCT1; doxorubicin 0–100 µmol/L; 3 min; mean ± SD.
Protocol: (§2) Cellular uptake studies: For all transport studies, cells were seeded in 24-well plates and incubated in a full growth medium at an initial density of 200,000 cells/well for 3 days. Before starting each transport experiment, cells were washed with a pre-warmed (37 °C) incubation buffer [64]. […] Protein concentration of whole cell lysate was determined to quantify cell density after each experiment using the BCA assay according to the manufacturer’s instructions (Pierce, Rockford, IL, USA).
Statistical evaluation: All experiments were performed at least three times unless otherwise noted. The OATP1A2*1–*3 and OCT1-3 net uptake was obtained by subtracting the uptake into wild-type cells from that of the transporter-transfected cells. Km and Vmax were assessed using Prism 5.01 (GraphPad Software, San Diego, CA, USA). The differences in the doxorubcin uptake in OATP1A2*1–*3 and in OCT1-3 transfected cells were adjusted to the membranous transporter protein levels in the whole cell lysate. Km and Vmax are presented as arithmetic means ± standard deviation.

In data set [3] the target is T3, P-gp (Homo sapiens, UniProt P08183).
T3 construct: expressed in transfected cells; host or cells: MDCKII
Put plainly: Transwell assay, MDCKII cells stably expressing P-gp. In kind it is cell-based. Conditions: 100 µmol/L doxorubicin; MDCKII-P-gp on Transwell. As to the method: as §1

Data set [4] concerns transfected cell lines and tumorous cell lines. Put plainly: Short-term cytotoxicity check (Presto Blue cell viability assay). It counts as cell-based. Conditions: concentrations tested (100 µmol/L), data not shown.
Data set [5] concerns the target T4, OATP1A2*1 (Homo sapiens, UniProt P46721).
T4 sequence (P46721 1-670): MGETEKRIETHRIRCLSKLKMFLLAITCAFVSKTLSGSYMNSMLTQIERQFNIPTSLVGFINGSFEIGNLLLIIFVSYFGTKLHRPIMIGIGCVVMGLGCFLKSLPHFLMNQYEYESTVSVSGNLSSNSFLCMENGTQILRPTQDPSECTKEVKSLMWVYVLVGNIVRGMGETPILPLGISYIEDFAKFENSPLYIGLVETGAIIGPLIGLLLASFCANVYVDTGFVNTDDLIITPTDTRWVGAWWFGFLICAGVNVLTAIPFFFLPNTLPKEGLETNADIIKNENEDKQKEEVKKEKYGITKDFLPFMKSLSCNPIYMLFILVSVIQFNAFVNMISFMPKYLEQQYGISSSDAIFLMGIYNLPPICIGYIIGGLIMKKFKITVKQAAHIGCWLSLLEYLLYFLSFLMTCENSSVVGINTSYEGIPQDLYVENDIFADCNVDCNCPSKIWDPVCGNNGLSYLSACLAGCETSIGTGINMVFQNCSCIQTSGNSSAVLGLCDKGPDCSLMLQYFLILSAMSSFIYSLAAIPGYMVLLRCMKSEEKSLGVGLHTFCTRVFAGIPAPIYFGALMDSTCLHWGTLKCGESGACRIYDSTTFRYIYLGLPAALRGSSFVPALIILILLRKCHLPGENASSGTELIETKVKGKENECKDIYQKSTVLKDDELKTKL
Put plainly: in vitro.
Protocol: as §2
Protein abundance of OATP1A2*1–*3 and OCT1–3 were measured by mass spectrometry-based targeted proteomics using a validated LC-MS/MS method as recently described [65].
200 μL of each cell lysate sample was mixed with 25 μL internal standard (5 µg/mL daunorubicin), 25 μL citric acid (1%), and 400 μL ice-cold acetonitrile for protein precipitation. […] The clear supernatant was transferred to HPLC vials. The measurement and quantitative evaluation were carried out using the LC-MS/MS system QTRAP 4000® (AB SCIEX, Darmstadt, Germany) and the Software Analyst® 1.4 (Applied Biosystems, Darmstadt, Germany).
Statistical evaluation: All experiments were performed at least three times unless otherwise noted. The OATP1A2*1–*3 and OCT1-3 net uptake was obtained by subtracting the uptake into wild-type cells from that of the transporter-transfected cells. […]

In data set [6] the target is T2, OCT1. As to conditions: OCT1 affinity to doxorubicin; cited from earlier work.

T3 sequence (P08183 whole entry): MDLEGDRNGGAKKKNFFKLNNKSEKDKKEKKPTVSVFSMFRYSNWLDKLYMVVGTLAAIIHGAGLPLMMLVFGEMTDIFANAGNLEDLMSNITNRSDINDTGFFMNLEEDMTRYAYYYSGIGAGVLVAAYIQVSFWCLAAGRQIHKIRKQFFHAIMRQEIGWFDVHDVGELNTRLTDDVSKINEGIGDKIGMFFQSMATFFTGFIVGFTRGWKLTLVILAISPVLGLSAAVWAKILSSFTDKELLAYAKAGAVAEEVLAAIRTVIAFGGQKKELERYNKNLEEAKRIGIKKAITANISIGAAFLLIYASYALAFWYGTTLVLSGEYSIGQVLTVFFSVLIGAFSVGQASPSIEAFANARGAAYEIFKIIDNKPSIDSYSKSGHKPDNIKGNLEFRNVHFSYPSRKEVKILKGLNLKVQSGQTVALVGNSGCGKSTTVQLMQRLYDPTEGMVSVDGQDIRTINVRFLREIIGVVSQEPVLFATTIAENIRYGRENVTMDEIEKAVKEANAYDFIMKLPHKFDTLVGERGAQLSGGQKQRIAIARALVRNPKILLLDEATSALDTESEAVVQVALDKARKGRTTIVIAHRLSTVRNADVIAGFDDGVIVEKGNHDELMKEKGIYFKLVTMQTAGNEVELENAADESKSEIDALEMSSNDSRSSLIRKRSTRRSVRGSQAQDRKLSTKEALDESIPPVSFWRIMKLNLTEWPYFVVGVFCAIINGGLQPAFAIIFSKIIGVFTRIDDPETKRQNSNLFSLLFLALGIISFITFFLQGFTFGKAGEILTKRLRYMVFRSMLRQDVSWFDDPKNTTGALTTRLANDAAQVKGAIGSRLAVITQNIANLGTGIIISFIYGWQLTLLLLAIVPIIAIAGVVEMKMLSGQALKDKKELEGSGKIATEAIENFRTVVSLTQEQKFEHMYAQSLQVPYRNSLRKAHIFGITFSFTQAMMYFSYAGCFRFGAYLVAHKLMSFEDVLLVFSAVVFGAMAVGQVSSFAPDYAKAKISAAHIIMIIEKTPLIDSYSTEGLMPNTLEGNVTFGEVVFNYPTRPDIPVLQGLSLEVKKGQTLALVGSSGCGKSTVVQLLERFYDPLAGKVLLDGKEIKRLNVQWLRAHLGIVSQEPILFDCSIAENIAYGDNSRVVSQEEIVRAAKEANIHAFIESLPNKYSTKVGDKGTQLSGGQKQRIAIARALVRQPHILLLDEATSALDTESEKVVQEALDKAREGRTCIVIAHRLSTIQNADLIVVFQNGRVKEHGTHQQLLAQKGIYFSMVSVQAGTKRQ

As to `COc1cccc2c1C(=O)c1c(O)c3c(c(O)c1C2=O)C[C@@](O)(C(=O)CO)C[C@@H]3O[C@H]1C[C@H](N)[C@H](O)[C@H](C)O1` [doxorubicin, Doxorubicin], the “vectorial transport of doxorubicin by BCRP” value in data set [1] was “vectorial transport from the basolateral to the apical compartment”. Further, the Vmax in data set [2] is 19.4 ± 3.78 pmol/mg/min. In data set [3], the “vectorial transport of doxorubicin by P-gp” value is on record as “vectorial transport from the basolateral to the apical compartment”. In data set [4], the “cytotoxic effects within one hour” value was “no cytotoxic effects”. The Km at 5 min in data set [5] (HEK293 cells stably expressing OATP1A2*1) worked out at 7.49 ± 3.41 µM. In data set [5] (other cell line), this compound came in with a microsomal CLint at 5 min of 4.71 ± 1.53 µL/min/mg. Besides, the Km in data set [6] was about 5 µM.

In general, Vmax refers to the rate approached at saturating substrate. One may read the Km as the substrate concentration at which the rate is half of its maximum. For orientation: microsomal CLint means a measure of how fast metabolising enzymes remove a compound, apart from limits set by blood flow. Low values mean greater metabolic stability, high ones faster metabolism.
